Assays:
[1] = biological target: Sodium channel protein type 9 subunit alpha (Homo sapiens, UniProt Q15858); assay: Inhibition of human Nav1.7 expressed in HEK293 cells after 600 secs at -60 mV holding potential by ion works barracuda population patch clamp method; type: cell-based
[2] = biological target: Sodium channel protein type 5 subunit alpha (Homo sapiens, UniProt Q14524); assay: Inhibition of human Nav1.5 expressed in HEK293 cells after 600 secs at -50 mV holding potential by ion works barracuda population patch clamp method; type: cell-based
Sequence of Sodium channel protein type 5 subunit alpha (Q14524 whole entry): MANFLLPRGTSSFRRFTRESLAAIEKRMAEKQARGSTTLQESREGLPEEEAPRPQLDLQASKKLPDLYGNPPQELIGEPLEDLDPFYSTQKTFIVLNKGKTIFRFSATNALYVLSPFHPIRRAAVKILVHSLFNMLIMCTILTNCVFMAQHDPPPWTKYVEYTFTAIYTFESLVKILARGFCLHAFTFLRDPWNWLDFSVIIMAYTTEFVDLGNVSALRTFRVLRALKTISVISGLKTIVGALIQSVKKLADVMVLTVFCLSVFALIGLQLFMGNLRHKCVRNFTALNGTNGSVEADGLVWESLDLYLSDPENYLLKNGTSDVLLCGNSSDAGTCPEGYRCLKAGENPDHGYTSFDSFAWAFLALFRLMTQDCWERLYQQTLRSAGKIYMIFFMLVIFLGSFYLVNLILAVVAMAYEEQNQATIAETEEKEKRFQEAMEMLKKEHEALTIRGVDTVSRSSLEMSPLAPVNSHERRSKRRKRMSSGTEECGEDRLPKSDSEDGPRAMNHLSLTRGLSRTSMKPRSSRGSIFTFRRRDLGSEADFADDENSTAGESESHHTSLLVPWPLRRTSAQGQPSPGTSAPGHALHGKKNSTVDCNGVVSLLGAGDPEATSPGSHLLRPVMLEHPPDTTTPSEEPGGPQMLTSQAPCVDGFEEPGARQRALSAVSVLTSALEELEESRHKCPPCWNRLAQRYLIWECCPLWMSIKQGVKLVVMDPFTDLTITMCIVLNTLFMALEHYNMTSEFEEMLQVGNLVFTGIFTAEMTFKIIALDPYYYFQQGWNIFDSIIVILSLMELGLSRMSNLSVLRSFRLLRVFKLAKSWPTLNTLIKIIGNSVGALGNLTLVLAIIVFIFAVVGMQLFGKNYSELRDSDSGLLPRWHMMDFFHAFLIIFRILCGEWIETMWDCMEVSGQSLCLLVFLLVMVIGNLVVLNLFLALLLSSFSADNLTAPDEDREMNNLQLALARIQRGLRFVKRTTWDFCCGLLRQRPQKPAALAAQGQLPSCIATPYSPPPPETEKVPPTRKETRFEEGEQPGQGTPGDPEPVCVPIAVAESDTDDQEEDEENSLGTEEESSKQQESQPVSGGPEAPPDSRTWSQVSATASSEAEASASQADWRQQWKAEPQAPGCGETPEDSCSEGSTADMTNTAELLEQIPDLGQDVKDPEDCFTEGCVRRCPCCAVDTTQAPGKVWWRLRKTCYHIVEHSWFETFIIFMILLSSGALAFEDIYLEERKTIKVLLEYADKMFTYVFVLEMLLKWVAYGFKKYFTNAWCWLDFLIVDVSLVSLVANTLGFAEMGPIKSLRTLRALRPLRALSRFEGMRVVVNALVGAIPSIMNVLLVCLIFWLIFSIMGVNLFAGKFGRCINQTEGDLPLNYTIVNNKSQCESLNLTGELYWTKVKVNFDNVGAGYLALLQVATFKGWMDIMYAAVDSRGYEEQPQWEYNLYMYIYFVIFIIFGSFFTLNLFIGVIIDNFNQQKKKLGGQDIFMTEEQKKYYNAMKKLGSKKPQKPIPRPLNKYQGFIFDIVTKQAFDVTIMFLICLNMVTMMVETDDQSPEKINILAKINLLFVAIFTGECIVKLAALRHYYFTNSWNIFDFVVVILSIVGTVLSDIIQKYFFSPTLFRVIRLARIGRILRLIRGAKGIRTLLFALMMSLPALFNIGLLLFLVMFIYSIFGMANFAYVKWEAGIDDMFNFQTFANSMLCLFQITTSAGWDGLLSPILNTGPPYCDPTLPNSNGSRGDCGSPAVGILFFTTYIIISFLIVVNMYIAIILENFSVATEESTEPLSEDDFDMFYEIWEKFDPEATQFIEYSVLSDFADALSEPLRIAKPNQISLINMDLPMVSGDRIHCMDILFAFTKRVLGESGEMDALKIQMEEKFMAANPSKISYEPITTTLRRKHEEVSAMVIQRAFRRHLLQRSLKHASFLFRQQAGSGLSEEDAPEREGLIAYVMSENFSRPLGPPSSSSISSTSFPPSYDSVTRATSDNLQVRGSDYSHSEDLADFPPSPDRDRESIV

Sequence of Sodium channel protein type 9 subunit alpha (Q15858 whole entry): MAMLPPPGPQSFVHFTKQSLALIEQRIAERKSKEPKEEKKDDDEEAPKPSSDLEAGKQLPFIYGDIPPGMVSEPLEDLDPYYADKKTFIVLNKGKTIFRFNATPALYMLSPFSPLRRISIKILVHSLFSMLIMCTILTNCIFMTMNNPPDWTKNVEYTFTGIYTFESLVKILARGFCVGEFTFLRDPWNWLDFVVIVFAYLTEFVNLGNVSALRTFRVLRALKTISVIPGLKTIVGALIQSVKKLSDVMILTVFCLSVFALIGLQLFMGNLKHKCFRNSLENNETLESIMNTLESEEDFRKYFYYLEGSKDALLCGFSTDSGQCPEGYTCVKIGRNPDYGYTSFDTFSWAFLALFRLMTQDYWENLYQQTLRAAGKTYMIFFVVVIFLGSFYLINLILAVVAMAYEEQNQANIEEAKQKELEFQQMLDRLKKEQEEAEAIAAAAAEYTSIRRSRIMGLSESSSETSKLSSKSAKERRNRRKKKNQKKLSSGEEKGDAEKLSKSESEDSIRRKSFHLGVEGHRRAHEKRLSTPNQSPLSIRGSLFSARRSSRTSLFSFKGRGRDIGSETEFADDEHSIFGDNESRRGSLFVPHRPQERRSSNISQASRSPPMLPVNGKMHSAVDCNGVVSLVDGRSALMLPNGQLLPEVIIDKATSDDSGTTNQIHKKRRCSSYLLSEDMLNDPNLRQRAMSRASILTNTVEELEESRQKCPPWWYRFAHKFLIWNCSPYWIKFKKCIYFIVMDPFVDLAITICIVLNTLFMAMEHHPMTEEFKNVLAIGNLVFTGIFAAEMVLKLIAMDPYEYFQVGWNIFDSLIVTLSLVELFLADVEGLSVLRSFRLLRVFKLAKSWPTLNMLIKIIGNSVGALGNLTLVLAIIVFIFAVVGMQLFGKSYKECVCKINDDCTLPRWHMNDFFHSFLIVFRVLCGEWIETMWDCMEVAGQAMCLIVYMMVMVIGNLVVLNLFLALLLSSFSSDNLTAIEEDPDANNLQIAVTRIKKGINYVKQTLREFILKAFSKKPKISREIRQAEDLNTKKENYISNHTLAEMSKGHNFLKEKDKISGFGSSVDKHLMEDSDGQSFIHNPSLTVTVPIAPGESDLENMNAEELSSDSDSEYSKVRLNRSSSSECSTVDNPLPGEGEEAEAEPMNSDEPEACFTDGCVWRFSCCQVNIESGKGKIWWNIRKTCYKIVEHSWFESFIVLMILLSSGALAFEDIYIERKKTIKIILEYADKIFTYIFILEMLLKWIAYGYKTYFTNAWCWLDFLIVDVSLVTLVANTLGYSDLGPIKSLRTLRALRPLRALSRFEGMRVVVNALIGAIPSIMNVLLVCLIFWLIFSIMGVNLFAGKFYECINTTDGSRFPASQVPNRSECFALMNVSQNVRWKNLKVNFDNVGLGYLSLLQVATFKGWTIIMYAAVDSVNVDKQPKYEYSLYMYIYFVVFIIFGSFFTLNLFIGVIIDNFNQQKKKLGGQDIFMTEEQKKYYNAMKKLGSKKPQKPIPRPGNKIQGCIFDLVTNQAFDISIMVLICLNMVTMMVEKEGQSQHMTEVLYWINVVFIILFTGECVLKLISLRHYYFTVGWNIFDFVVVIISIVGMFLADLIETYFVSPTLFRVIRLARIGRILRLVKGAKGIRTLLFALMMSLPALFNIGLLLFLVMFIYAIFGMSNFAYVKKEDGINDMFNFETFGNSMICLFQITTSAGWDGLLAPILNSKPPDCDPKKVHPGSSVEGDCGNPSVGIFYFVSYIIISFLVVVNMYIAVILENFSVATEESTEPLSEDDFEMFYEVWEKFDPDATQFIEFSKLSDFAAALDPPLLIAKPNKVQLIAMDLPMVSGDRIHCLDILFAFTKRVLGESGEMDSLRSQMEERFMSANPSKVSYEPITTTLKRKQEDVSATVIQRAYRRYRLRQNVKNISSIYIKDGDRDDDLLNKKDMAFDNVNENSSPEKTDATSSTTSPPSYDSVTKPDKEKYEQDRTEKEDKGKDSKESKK

IC50 [1]	SMILES	IC50 [2]
7.82 µM	CC(C)COc1ncc(-c2cn(C)c3cc(C(=O)NS(C)(=O)=O)cnc23)cc1Cl	
0.123 µM	Cn1cc(-c2cnc(OCC3CC3)c(Cl)c2)c2ccc(C(=O)NS(C)(=O)=O)cc21	
	Cc1ccc(-c2cn(C)c3cc(C(=O)NS(C)(=O)=O)ccc23)cc1	> 30 µM
	Cn1cc(-c2ccc(C(F)F)cc2)c2ccc(C(=O)NS(C)(=O)=O)cc21	> 30 µM
	CCc1cccc(-c2cn(C)c3cc(C(=O)NS(C)(=O)=O)ccc23)c1	> 30 µM
0.063 µM	Cn1cc(-c2cnc(OCC(F)(F)F)c(Cl)c2)c2ccc(C(=O)NS(C)(=O)=O)cc21	12 µM
1.4 µM	CC(C)COc1ncc(-c2cn(C)c3nc(C(=O)NS(C)(=O)=O)ccc23)cc1Cl	
0.19 µM	CC(C)COc1ncc(-c2c3ccc(C(=O)NS(=O)(=O)C4CC4)cc3nn2C)cc1Cl	
3.02 µM	Cn1cc(-c2ccc(C(F)(F)F)cc2)c2ccc(C(=O)NS(C)(=O)=O)nc21	
0.08 µM	Cn1cc(-c2ccc(OC(F)(F)F)cc2)c2ccc(C(=O)NS(C)(=O)=O)cc21	16 µM
	Cc1cccc(-c2cn(C)c3cc(C(=O)NS(C)(=O)=O)ccc23)c1	> 30 µM
2 µM	CC(C)COc1ncc(-c2cn(C)c3cc(C(=O)NS(=O)(=O)C4CC4)cnc23)cc1Cl	
	CCc1ccc(-c2cn(C)c3cc(C(=O)NS(C)(=O)=O)ccc23)cc1	> 30 µM
	Cn1cc(-c2ccc(C(F)F)cc2)c2ccc(C(=O)NS(=O)(=O)C3CC3)cc21	> 30 µM
	Cn1cc(-c2cccc(F)c2F)c2ccc(C(=O)NS(C)(=O)=O)cc21	> 30 µM
0.07 µM	CC(C)COc1ncc(-c2cn(C)c3cc(C(=O)NS(C)(=O)=O)ccc23)cc1C#N	21 µM
	Cn1cc(-c2ccc(C(F)F)cc2)c2cc(F)c(C(=O)NS(C)(=O)=O)cc21	> 30 µM
0.53 µM	CC(C)COc1ccc(-c2cn(C)c3cc(C(=O)NS(C)(=O)=O)ccc23)cc1	18 µM
	CC(C)COc1ncc(-c2cn(C(C)C)c3cc(C(=O)NS(C)(=O)=O)ccc23)cc1Cl	1.7 µM
0.104 µM	CC(C)COc1ncc(-c2nn(C)c3cc(C(=O)NS(=O)(=O)C4CC4)ccc23)cc1Cl	5.9 µM
0.642 µM	Cn1cc(-c2ccc(C(F)(F)F)cc2)c2ccc(C(=O)NS(=O)(=O)C3CC3)nc21	
1.7 µM	CN(C)S(=O)(=O)NC(=O)c1ccc2c(-c3ccc(C(F)(F)F)cc3)cn(C)c2c1	19 µM
0.28 µM	CC(C)COc1ncc(-c2n[nH]c3cc(C(=O)NS(C)(=O)=O)ccc23)cc1Cl	
	Cn1cc(-c2ccccc2)c2ccc(C(=O)NS(C)(=O)=O)cc21	> 30 µM

SMILES	IC50 [1]	IC50 [2]
COc1cc(-c2cn(C)c3cc(C(=O)NS(C)(=O)=O)ccc23)cnc1OCC(C)C	0.51 µM	> 30 µM
COc1cc(-c2cn(C)c3cc(C(=O)NS(=O)(=O)C4CC4)ccc23)cnc1OCC(C)C	0.085 µM	> 30 µM
Cn1cc(-c2ccc(C(F)(F)F)cc2)c2cnc(C(=O)NS(C)(=O)=O)cc21	> 30 µM	
CC(C)COc1ccc(-c2nn(C)c3cc(C(=O)NS(C)(=O)=O)ccc23)cn1	0.314 µM	> 30 µM
Cn1nc(-c2ccc(C(F)(F)F)cc2)c2ccc(C(=O)NS(C)(=O)=O)cc21	0.194 µM	> 30 µM
Cn1cc(-c2cccnc2)c2ccc(C(=O)NS(C)(=O)=O)cc21	> 3 µM	
CC(C)COc1ccc(-c2cn(C)c3cc(C(=O)NS(C)(=O)=O)ccc23)cn1	0.164 µM	> 30 µM
Cn1cc(-c2cnc(OCC(C)(C)O)c(Cl)c2)c2ccc(C(=O)NS(C)(=O)=O)cc21	> 30 µM	> 30 µM
Cn1cc(-c2ccc(C(F)(F)F)cc2)c2ccc(C(=O)NS(=O)(=O)c3ccc(F)c(F)c3)cc21	> 3 µM	
Cn1cc(-c2cnc(OCC(F)F)c(Cl)c2)c2ccc(C(=O)NS(C)(=O)=O)cc21	0.85 µM	> 30 µM
Cn1nc(-c2ccc(C(F)(F)F)cc2)c2cc(F)c(C(=O)NS(C)(=O)=O)cc21	0.052 µM	> 30 µM
CC(C)COc1ccc(-c2nn(C)c3cc(C(=O)NS(C)(=O)=O)c(F)cc23)cn1	0.17 µM	> 30 µM
